Results from PubChem BioAssay (NCI).
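Cells were grown in 96-well plates and exposed to each compound for 48 hours at five concentrations; endpoints were interpolated linearly between bracketing concentrations, or set to the highest concentration if not reached. GI50 is the concentration that inhibits growth by half. TGI: total growth inhibition.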

Key:
Test in all cases: NCI tumour cell line growth inhibition, 48 h
786-0 renal = test system: 786-0 renal
A498 renal = test system: A498 renal
A549 NSCLC = test system: A549 NSCLC
ACHN renal = test system: ACHN renal
CAKI-1 renal = test system: CAKI-1 renal
CCRF-CEM leukemia = test system: CCRF-CEM leukemia
COLO 205 colon = test system: COLO 205 colon
DLD-1 colon = test system: DLD-1 colon
DMS 114 small cell lung = test system: DMS 114 small cell lung
EKVX NSCLC = test system: EKVX NSCLC
HCC-2998 colon = test system: HCC-2998 colon
HCT-116 colon = test system: HCT-116 colon
HCT-15 colon = test system: HCT-15 colon
HOP-18 NSCLC = test system: HOP-18 NSCLC
HOP-62 NSCLC = test system: HOP-62 NSCLC
HOP-92 NSCLC = test system: HOP-92 NSCLC
HT29 colon = test system: HT29 colon
K-562 leukemia = test system: K-562 leukemia
KM12 colon = test system: KM12 colon
KM20L2 colon = test system: KM20L2 colon
LOX IMVI melanoma = test system: LOX IMVI melanoma
LXFL 529 NSCLC = test system: LXFL 529 NSCLC
M14 melanoma = test system: M14 melanoma
M19-MEL melanoma = test system: M19-MEL melanoma
MALME-3M melanoma = test system: MALME-3M melanoma
MOLT-4 leukemia = test system: MOLT-4 leukemia
NCI-H226 lung = test system: NCI-H226 lung
NCI-H23 lung = test system: NCI-H23 lung
NCI-H460 lung = test system: NCI-H460 lung
NCI-H522 lung = test system: NCI-H522 lung
OVCAR-3 ovarian = test system: OVCAR-3 ovarian
OVCAR-4 ovarian = test system: OVCAR-4 ovarian
OVCAR-5 ovarian = test system: OVCAR-5 ovarian
OVCAR-8 ovarian = test system: OVCAR-8 ovarian
RPMI-8226 leukemia = test system: RPMI-8226 leukemia
SF-295 CNS = test system: SF-295 CNS
SF-539 CNS = test system: SF-539 CNS
SK-MEL-28 melanoma = test system: SK-MEL-28 melanoma
SNB-19 CNS = test system: SNB-19 CNS
SNB-75 CNS = test system: SNB-75 CNS
SNB-78 CNS = test system: SNB-78 CNS
SW-620 colon = test system: SW-620 colon
TK-10 renal = test system: TK-10 renal
U251 CNS = test system: U251 CNS
UACC-257 melanoma = test system: UACC-257 melanoma
UACC-62 melanoma = test system: UACC-62 melanoma
UO-31 renal = test system: UO-31 renal
DMS 273 small cell lung = test system: DMS 273 small cell lung
HL-60(TB) leukemia = test system: HL-60(TB) leukemia
IGROV1 ovarian = test system: IGROV1 ovarian
SF-268 CNS = test system: SF-268 CNS
SK-MEL-2 melanoma = test system: SK-MEL-2 melanoma
SK-MEL-5 melanoma = test system: SK-MEL-5 melanoma
SK-OV-3 ovarian = test system: SK-OV-3 ovarian
SN12C renal = test system: SN12C renal
SR leukemia = test system: SR leukemia
XF 498 CNS = test system: XF 498 CNS

## COc1cc2c(c(OC)c1OC)-c1ccc(SC)c(=O)cc1[C@@H](NCc1ccccc1[N+](=O)[O-])CC2
786-0 renal
  TGI: 41.5 µM
A498 renal
  TGI: 0.0283 µM
A549 NSCLC
  TGI: > 100 µM
ACHN renal
  TGI: > 100 µM
CAKI-1 renal
  TGI: > 100 µM
CCRF-CEM leukemia
  TGI: 38.5 µM
COLO 205 colon
  TGI: 0.0556 µM
DLD-1 colon
  TGI: > 100 µM
DMS 114 small cell lung
  TGI: 0.0243 µM
EKVX NSCLC
  TGI: > 100 µM
HCC-2998 colon
  TGI: 0.0407 µM
HCT-116 colon
  TGI: 0.0278 µM
HCT-15 colon
  TGI: 0.0487 µM
HOP-18 NSCLC
  GI50: > 100 µM
  TGI: > 100 µM
HOP-62 NSCLC
  TGI: > 100 µM
HOP-92 NSCLC
  TGI: > 100 µM
HT29 colon
  TGI: 0.0146 µM
K-562 leukemia
  GI50: 0.171 µM
  TGI: > 100 µM
KM12 colon
  TGI: 0.117 µM
KM20L2 colon
  TGI: 0.0112 µM
LOX IMVI melanoma
  TGI: 19 µM
LXFL 529 NSCLC
  TGI: 15.8 µM
M14 melanoma
  TGI: 0.21 µM
M19-MEL melanoma
  TGI: > 100 µM
MALME-3M melanoma
  TGI: > 100 µM
MOLT-4 leukemia
  TGI: > 100 µM
NCI-H226 lung
  TGI: 0.0558 µM
NCI-H23 lung
  TGI: 0.0237 µM
NCI-H460 lung
  TGI: 0.0826 µM
NCI-H522 lung
  TGI: 0.0298 µM
OVCAR-3 ovarian
  TGI: 0.0293 µM
OVCAR-4 ovarian
  TGI: > 100 µM
OVCAR-5 ovarian
  GI50: > 100 µM
  TGI: > 100 µM
OVCAR-8 ovarian
  TGI: 0.0499 µM
RPMI-8226 leukemia
  TGI: 23.1 µM
SF-295 CNS
  TGI: > 100 µM
SF-539 CNS
  TGI: 0.0199 µM
SK-MEL-28 melanoma
  TGI: > 100 µM
SNB-19 CNS
  TGI: > 100 µM
SNB-75 CNS
  GI50: 1.53 µM
SNB-78 CNS
  TGI: 40.6 µM
SW-620 colon
  TGI: > 100 µM
TK-10 renal
  TGI: > 100 µM
U251 CNS
  TGI: 0.0419 µM
UACC-257 melanoma
  TGI: 47.2 µM
UACC-62 melanoma
  TGI: 18.2 µM
UO-31 renal
  TGI: > 100 µM

## O=c1[nH]cnc2c1sc(=S)n2-c1ccccc1
786-0 renal
  TGI: > 100 µM
A498 renal
  TGI: > 100 µM
A549 NSCLC
  TGI: > 100 µM
ACHN renal
  TGI: > 100 µM
CAKI-1 renal
  TGI: > 100 µM
CCRF-CEM leukemia
  TGI: > 100 µM
COLO 205 colon
  TGI: > 100 µM
DLD-1 colon
  TGI: > 100 µM
DMS 114 small cell lung
  TGI: > 100 µM
DMS 273 small cell lung
  TGI: > 100 µM
EKVX NSCLC
  TGI: > 100 µM
HCC-2998 colon
  TGI: > 100 µM
HCT-116 colon
  TGI: > 100 µM
HCT-15 colon
  TGI: > 100 µM
HL-60(TB) leukemia
  TGI: > 100 µM
HOP-62 NSCLC
  TGI: > 100 µM
HOP-92 NSCLC
  TGI: > 100 µM
HT29 colon
  TGI: > 100 µM
IGROV1 ovarian
  TGI: > 100 µM
K-562 leukemia
  TGI: > 100 µM
KM12 colon
  TGI: > 100 µM
KM20L2 colon
  TGI: > 100 µM
LOX IMVI melanoma
  TGI: > 100 µM
LXFL 529 NSCLC
  TGI: > 100 µM
M14 melanoma
  TGI: > 100 µM
M19-MEL melanoma
  TGI: > 100 µM
MALME-3M melanoma
  TGI: > 100 µM
MOLT-4 leukemia
  TGI: > 100 µM
NCI-H226 lung
  TGI: > 100 µM
NCI-H23 lung
  TGI: > 100 µM
NCI-H460 lung
  TGI: > 100 µM
NCI-H522 lung
  TGI: > 100 µM
OVCAR-3 ovarian
  TGI: > 100 µM
OVCAR-4 ovarian
  TGI: > 100 µM
OVCAR-5 ovarian
  TGI: > 100 µM
OVCAR-8 ovarian
  TGI: > 100 µM
SF-268 CNS
  TGI: > 100 µM
SF-295 CNS
  TGI: > 100 µM
SF-539 CNS
  TGI: > 100 µM
SK-MEL-2 melanoma
  TGI: > 100 µM
SK-MEL-28 melanoma
  TGI: > 100 µM
SK-MEL-5 melanoma
  TGI: > 100 µM
SK-OV-3 ovarian
  TGI: > 100 µM
SN12C renal
  TGI: > 100 µM
SNB-19 CNS
  TGI: > 100 µM
SNB-75 CNS
  TGI: > 100 µM
SNB-78 CNS
  TGI: > 100 µM
SR leukemia
  TGI: > 100 µM
SW-620 colon
  TGI: > 100 µM
TK-10 renal
  TGI: > 100 µM
U251 CNS
  TGI: > 100 µM
UACC-257 melanoma
  TGI: > 100 µM
UACC-62 melanoma
  TGI: > 100 µM
UO-31 renal
  TGI: > 100 µM
XF 498 CNS
  TGI: > 100 µM

## CC1(C)CC(C)(C)CC(O)(C2(O)CC(C)(C)CC(C)(C)C2)C1
786-0 renal
  TGI: > 100 µM
A549 NSCLC
  TGI: > 100 µM
ACHN renal
  TGI: > 100 µM
CCRF-CEM leukemia
  TGI: > 100 µM
COLO 205 colon
  TGI: > 100 µM
DMS 114 small cell lung
  TGI: > 100 µM
DMS 273 small cell lung
  TGI: > 100 µM
EKVX NSCLC
  TGI: > 100 µM
HCC-2998 colon
  TGI: > 100 µM
HCT-116 colon
  TGI: > 100 µM
HCT-15 colon
  TGI: > 100 µM
HL-60(TB) leukemia
  TGI: > 100 µM
HOP-62 NSCLC
  TGI: > 100 µM
HT29 colon
  TGI: > 100 µM
IGROV1 ovarian
  TGI: > 100 µM
K-562 leukemia
  TGI: > 100 µM
KM12 colon
  TGI: > 100 µM
KM20L2 colon
  TGI: > 100 µM
LOX IMVI melanoma
  TGI: > 100 µM
LXFL 529 NSCLC
  TGI: > 100 µM
M14 melanoma
  TGI: > 100 µM
M19-MEL melanoma
  TGI: > 100 µM
MALME-3M melanoma
  TGI: > 100 µM
MOLT-4 leukemia
  TGI: > 100 µM
NCI-H226 lung
  TGI: > 100 µM
NCI-H23 lung
  TGI: > 100 µM
NCI-H460 lung
  TGI: > 100 µM
NCI-H522 lung
  TGI: > 100 µM
OVCAR-3 ovarian
  TGI: > 100 µM
OVCAR-8 ovarian
  TGI: > 100 µM
RPMI-8226 leukemia
  TGI: > 100 µM
SF-268 CNS
  TGI: > 100 µM
SF-295 CNS
  TGI: > 100 µM
SF-539 CNS
  TGI: > 100 µM
SK-MEL-28 melanoma
  TGI: > 100 µM
SK-MEL-5 melanoma
  TGI: > 100 µM
SK-OV-3 ovarian
  TGI: > 100 µM
SN12C renal
  TGI: > 100 µM
SNB-19 CNS
  TGI: > 100 µM
SR leukemia
  TGI: > 100 µM
SW-620 colon
  TGI: > 100 µM
TK-10 renal
  TGI: > 100 µM
U251 CNS
  TGI: > 100 µM
UACC-257 melanoma
  TGI: > 100 µM
UACC-62 melanoma
  TGI: > 100 µM
UO-31 renal
  TGI: > 100 µM
XF 498 CNS
  TGI: > 100 µM
